Here are results for six compounds from ChEMBL document CHEMBL1201862, “PubChem BioAssay data set” (2004).

The term EC50 denotes the concentration at which the effect is half-maximal.

The source made the active and inactive calls.

One test has as its system BJ. As to the kind of experiment: cytotoxicity toward BJ-TERT fibroblasts, dose response, cell-based, RAS-independent, luminescence (AID 1933). The class given is functional. The note with it: Homo sapiens.
In test [1] the target is Probable nicotinate-nucleotide adenylyltransferase (Staphylococcus aureus (strain N315), UniProt P65502). The test is classed as functional, Staphylococcus aureus subsp. aureus N315. The note with it: read-out: IC50_Mean.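 Further: confirmatory dose-response retesting of NadD inhibitor hits first found in an ultra-high-throughput screen.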
The target in the next test is Albumin (Bos taurus, UniProt P02769). As to the kind of experiment: Counterscreen for inhibitors of T-cell receptor (TCR)-CD3 interaction: Fluorescence-based biochemical high throughput dose response assay to identify inhibitors of T-cell receptor (TCR)-CD3 interaction using a TAMRA-labeled BSA probe. The test is classed as functional. (In general: A counterscreen serves to expose hits that act by an unwanted route or on another target.)

Test [2] concerns the target T1, Zinc finger protein mex-5 (Caenorhabditis elegans, UniProt Q9XUB2).
T1 sequence (Q9XUB2 whole entry): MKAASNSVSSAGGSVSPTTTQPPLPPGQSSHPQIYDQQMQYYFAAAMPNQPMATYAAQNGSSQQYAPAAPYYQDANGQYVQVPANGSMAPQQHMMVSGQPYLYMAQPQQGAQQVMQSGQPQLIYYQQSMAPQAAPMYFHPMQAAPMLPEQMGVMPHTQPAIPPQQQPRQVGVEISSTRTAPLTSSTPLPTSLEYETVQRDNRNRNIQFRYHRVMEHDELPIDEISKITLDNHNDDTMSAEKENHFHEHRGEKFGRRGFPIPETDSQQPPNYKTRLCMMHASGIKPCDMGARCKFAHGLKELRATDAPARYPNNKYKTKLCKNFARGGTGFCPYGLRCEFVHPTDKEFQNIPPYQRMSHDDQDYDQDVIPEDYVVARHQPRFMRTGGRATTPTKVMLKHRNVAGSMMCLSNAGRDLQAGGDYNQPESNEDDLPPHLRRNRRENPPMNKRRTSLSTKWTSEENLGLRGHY
As to the kind of experiment: MEX-5/TCR-2 RNA interaction inhibitors, dose response, biochemical, C. elegans, fluorescence polarization (AID 1960). On the technique in general: Fluorescence polarisation rises when a labelled molecule tumbles more slowly, as on binding a larger partner.

For a further test, the target named is Estrogen receptor beta (Homo sapiens, UniProt Q92731). As to the kind of experiment: ERβ–SRC-3 coactivator interaction inhibitors, confirmation, orthogonal assay, biochemical, ELISA, streptavidin-HRP readout (AID 1060). (In general: In an ELISA, binding on a coated surface is turned into a signal by an enzyme label.)
Test [3] in a line: Luminescence Cell-Based Dose Response HTS to Identify Inhibitors of 5'UTR Stem-Loop Driven Prion Protein mRNA Translation in H4 Neuroglioblastoma Cells. [Related pubchem assays: 1827 (Project Summary), 1813 (Primary HTS)]. The test is classed as functional.
Test [4] is described as follows: Artemis endonuclease inhibitor potency, dose response, biochemical, fluorescence intensity (AID 720701).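 Further: Artemis endonuclease enzyme.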 The class given is functional.
Test [5] addresses Mothers against decapentaplegic homolog 3 (Homo sapiens, UniProt P84022). As to the kind of experiment: SMAD3 transcription factor inhibitors, dose response (AID 715). The class given is functional.
Test [6] addresses T2, Dual specificity protein phosphatase 6 (Rattus norvegicus, UniProt Q64346).
T2 sequence (Q64346 whole entry): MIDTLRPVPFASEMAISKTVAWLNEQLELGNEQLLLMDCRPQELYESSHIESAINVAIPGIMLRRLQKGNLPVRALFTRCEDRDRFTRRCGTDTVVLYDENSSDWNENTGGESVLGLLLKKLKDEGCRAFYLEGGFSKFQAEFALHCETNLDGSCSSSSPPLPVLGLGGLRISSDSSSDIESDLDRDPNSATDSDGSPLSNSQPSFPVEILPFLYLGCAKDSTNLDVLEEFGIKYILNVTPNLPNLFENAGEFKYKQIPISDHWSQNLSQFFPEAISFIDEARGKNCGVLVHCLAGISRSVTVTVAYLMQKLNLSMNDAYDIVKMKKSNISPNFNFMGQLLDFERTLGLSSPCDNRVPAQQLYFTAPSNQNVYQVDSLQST
As to the kind of experiment: MKP-3 phosphatase inhibitors, primary screen, biochemical, rat enzyme, in vitro (AID 425).

Test [7] addresses T3, Tyrosine-protein phosphatase non-receptor type 22 (Homo sapiens, UniProt Q9Y2R2).
T3 sequence (Q9Y2R2 whole entry): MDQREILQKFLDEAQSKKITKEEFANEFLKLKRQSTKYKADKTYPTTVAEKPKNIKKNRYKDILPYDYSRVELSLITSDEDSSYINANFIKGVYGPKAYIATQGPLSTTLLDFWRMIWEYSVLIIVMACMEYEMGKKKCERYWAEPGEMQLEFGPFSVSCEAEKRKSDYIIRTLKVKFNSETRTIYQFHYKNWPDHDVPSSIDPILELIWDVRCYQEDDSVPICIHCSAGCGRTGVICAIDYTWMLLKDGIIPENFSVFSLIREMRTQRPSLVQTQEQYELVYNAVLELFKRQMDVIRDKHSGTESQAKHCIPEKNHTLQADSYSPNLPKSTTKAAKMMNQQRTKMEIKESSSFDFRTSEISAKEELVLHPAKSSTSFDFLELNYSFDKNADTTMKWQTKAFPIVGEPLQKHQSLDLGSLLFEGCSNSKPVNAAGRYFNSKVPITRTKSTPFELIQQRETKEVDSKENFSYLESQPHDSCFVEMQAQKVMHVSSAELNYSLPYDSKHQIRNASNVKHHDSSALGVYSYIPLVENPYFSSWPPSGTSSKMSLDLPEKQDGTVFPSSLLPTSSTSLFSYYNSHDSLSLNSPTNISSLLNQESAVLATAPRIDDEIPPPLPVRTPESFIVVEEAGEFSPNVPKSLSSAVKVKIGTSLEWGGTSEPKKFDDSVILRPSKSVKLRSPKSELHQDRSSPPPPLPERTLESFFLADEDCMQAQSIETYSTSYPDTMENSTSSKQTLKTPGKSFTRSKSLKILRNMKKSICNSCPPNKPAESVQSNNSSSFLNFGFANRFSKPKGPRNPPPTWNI
As to the kind of experiment: LYP1 Fluorescent Assay using OMFP substrate for In Vitro dose response studies. [Related pubchem assays (depositor defined):AID1779, AID1784, AID435024].

Test [8] deals with T3, Tyrosine-protein phosphatase non-receptor type 22. As to the kind of experiment: PubChem AID 2140.
Test [9] shares this target. As to the kind of experiment: inhibitors of LYP phosphatase, biochemical, fluorescence intensity, uHTS (AID 1779).

Sequence of Mothers against decapentaplegic homolog 3 (P84022 whole entry): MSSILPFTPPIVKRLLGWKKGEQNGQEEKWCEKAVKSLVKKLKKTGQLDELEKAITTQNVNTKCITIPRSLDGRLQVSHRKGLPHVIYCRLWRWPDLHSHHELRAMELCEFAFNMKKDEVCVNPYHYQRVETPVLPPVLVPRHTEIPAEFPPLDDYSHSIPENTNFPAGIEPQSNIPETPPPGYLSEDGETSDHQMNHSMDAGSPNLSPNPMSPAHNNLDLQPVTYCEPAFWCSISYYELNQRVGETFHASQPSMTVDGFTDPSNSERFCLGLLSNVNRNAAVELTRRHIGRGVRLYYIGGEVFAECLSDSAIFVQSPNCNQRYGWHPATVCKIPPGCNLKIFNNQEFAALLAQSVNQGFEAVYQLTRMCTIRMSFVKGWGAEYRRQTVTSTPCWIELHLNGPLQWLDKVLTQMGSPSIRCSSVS
Sequence of Estrogen receptor beta (Q92731 whole entry): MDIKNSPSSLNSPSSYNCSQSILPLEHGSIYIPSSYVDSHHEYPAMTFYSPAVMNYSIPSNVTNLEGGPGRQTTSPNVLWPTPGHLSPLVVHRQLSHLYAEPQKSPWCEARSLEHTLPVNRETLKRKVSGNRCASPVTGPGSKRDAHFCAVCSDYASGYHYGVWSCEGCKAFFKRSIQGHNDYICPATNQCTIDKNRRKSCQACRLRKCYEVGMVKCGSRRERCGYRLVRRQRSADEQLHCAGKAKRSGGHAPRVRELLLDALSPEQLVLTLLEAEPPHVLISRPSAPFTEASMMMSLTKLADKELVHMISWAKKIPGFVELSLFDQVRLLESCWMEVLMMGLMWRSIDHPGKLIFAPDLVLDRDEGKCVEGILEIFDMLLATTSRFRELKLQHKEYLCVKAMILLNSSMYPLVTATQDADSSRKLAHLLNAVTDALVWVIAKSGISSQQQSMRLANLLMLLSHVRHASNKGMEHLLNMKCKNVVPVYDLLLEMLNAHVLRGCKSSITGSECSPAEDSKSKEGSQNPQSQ
Sequence of Albumin (P02769 whole entry): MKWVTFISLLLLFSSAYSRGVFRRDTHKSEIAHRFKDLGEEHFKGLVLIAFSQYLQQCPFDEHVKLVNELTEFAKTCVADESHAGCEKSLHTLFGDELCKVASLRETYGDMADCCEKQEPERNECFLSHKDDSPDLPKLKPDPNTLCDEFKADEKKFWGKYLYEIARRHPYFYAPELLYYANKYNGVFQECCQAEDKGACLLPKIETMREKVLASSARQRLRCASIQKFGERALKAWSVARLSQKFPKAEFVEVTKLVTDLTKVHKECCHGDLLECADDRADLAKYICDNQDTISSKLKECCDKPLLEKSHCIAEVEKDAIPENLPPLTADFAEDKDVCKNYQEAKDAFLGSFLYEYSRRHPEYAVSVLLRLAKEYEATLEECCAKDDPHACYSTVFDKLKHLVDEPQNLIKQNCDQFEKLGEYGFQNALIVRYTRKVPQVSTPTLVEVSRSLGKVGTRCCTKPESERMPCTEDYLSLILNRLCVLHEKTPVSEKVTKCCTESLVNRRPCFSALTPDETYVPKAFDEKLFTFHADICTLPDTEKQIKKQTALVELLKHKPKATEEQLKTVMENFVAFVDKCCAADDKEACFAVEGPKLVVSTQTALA
Sequence of Probable nicotinate-nucleotide adenylyltransferase (P65502 whole entry): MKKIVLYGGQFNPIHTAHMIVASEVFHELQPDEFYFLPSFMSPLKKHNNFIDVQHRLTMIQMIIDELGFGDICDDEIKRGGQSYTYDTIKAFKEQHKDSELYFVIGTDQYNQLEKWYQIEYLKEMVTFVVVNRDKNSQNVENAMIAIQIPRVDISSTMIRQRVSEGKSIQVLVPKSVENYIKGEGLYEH

As to `CCN1/C(=C/c2ccc3cc(C)ccc3[n+]2CC)Sc2cc(C)c(C)cc21`, the EC50 with BJ was 0.337 µM (inconclusive).
With `Nc1ccc2nc3c(O)nc(S)nc3nc2c1`, the values for the IC50 (in [1]; on Albumin) were 17 µM (active) and 25.6 µM (inactive), respectively. In addition, in test [2], the EC50 is 1.67 µM (inconclusive).
For `COc1ccc(C(=O)Nc2nc3c(s2)Cc2cc(OC)ccc2-3)cc1`, on Estrogen receptor beta, the IC50 was < 0.023 µM (not active).
Take `Cc1oc2c(c1C(=O)c1ccccc1)C(=O)C(=O)c1ccccc1-2`: the concentration for a half-maximal effect (EC50) in [3] is listed as > 120 µM (not active). The IC50 in test [4] was 1.48 µM (active).
As for `O=C1CCCC2=C1C1(O)C(=O)c3ccccc3C1(O)O2` (configuration not stated), in test [5], the IC50 was 2.73 µM (active).
As to `O=C(O)COc1ccc(/C=N/NC(=O)c2ccc(-c3csc(Nc4ccc(Cl)cc4)n3)cc2)cc1`, the IC50 was 27.3 µM (active) in [6], > 99 µM (inactive) in test [7], 6.07 µM (active) in test [8] and > 99 µM (inactive) in test [9].
